Measured values as given in ChEMBL document CHEMBL3259515, “Further studies on ethyl 5-hydroxy-indole-3-carboxylate scaffold: design, synthesis and evaluation of 2-phenylthiomethyl-indole derivatives as efficient inhibitors of human 5-lipoxygenase” (Eur J Med Chem, 2014).
The source made the active and inactive calls. The rule behind the calls is not given here.

Columns and labels:
[1] = target: T1, Polyunsaturated fatty acid 5-lipoxygenase (Homo sapiens, UniProt P09917); assay: Inhibition of 5-LO in human polymorphonuclear leukocytes assessed as inhibition of LTB4 production from arachidonic acid preincubated for 15 mins by HPLC analysis; type: cell-based
T1 sequence (P09917 whole entry): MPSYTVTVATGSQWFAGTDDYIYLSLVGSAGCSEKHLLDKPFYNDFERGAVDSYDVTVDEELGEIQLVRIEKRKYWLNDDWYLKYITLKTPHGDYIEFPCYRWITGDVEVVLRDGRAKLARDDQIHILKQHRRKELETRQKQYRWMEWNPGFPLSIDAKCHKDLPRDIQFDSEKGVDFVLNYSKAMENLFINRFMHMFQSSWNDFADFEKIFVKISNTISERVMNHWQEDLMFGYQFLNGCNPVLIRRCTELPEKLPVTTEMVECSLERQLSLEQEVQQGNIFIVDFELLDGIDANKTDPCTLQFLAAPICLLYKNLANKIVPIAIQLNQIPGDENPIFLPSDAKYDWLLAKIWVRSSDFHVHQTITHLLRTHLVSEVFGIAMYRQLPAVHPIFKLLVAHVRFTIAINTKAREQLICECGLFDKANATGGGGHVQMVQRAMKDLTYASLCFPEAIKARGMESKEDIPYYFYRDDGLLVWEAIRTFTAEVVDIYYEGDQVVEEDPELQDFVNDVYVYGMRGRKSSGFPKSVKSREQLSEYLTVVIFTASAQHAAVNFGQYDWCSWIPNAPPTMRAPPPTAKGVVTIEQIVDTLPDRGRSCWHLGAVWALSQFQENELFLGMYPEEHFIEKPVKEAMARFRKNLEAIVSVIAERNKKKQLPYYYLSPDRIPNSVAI

[2] = target: T1, Polyunsaturated fatty acid 5-lipoxygenase; assay: Inhibition of human recombinant 5-LO expressed in Escherichia coli BL21 using arachidonic acid as substrate preincubated for 5 to 10 mins by HPLC analysis
[3] = target: T2, Polyunsaturated fatty acid lipoxygenase ALOX12 (Homo sapiens) (UniProt P18054); assay: Inhibition of 12-LO-mediated 12-H(P)ETE production in human polymorphonuclear leukocytes assessed as remaining activity preincubated at 10 uM for 15 mins by HPLC analysis; type: cell-based
T2 sequence (whole entry): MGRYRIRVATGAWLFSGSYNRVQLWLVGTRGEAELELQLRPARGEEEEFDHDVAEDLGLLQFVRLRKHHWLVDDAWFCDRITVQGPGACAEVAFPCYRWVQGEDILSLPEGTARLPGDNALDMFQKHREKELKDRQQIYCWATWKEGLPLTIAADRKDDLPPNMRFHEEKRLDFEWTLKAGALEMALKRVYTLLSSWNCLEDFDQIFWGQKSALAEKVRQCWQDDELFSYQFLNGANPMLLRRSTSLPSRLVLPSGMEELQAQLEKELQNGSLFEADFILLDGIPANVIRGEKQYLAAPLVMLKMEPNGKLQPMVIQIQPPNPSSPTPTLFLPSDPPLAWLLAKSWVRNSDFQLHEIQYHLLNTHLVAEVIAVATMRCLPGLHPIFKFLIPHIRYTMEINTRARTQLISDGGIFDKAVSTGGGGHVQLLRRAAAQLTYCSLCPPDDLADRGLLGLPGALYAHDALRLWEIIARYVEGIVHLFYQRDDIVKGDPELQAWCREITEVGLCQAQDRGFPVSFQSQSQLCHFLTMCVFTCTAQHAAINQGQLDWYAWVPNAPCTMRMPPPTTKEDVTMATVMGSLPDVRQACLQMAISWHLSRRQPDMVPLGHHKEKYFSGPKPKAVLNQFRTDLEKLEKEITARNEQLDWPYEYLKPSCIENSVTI

[4] = target: T3, Polyunsaturated fatty acid lipoxygenase ALOX15 (Homo sapiens) (UniProt P16050); assay: Inhibition of 15-LO-mediated 15-H(P)ETE production in human polymorphonuclear leukocytes assessed as remaining activity preincubated at 10 uM for 15 mins by HPLC analysis; type: cell-based
T3 sequence (whole entry): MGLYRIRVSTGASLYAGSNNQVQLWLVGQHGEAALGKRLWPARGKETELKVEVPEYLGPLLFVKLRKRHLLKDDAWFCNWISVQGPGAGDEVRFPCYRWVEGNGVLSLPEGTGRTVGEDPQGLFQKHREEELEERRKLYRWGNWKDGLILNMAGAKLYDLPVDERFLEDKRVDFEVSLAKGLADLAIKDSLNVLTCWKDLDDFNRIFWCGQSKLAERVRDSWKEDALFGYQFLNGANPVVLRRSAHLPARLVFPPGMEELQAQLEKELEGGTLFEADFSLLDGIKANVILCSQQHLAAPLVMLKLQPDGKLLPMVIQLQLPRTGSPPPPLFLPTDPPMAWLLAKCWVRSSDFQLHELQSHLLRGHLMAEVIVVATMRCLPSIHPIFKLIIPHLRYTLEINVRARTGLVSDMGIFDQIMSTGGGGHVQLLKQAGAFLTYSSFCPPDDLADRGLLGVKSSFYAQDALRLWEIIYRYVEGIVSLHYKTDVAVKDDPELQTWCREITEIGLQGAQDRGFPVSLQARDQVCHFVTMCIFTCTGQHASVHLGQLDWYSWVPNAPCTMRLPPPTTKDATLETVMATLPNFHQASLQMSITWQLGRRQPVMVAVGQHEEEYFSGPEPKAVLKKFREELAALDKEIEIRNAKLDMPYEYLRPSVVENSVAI

[5] = target: T4, Prostaglandin G/H synthase 1 (Ovis aries) (UniProt P05979); assay: Inhibition of purified ovine COX1 preincubated for 5 mins by HPLC analysis
T4 sequence (whole entry): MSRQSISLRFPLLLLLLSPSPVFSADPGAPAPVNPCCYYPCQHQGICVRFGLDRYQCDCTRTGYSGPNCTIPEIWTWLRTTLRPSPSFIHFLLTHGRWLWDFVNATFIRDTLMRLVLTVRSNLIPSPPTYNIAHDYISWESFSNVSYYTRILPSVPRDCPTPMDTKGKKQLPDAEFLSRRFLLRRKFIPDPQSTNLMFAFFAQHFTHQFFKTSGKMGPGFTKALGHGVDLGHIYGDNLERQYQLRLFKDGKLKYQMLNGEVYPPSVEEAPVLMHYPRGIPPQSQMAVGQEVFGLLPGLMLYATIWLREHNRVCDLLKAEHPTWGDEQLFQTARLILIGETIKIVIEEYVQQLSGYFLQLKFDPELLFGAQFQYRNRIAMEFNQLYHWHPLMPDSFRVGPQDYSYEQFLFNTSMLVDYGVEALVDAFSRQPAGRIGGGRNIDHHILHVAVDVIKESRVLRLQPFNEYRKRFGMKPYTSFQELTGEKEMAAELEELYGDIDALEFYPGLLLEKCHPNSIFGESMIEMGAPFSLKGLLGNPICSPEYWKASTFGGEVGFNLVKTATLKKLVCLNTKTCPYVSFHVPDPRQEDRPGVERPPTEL

[6] = target: T5, Prostaglandin G/H synthase 2 (Homo sapiens) (UniProt P35354); assay: Inhibition of human recombinant COX2 preincubated for 5 mins by HPLC analysis
T5 sequence (whole entry): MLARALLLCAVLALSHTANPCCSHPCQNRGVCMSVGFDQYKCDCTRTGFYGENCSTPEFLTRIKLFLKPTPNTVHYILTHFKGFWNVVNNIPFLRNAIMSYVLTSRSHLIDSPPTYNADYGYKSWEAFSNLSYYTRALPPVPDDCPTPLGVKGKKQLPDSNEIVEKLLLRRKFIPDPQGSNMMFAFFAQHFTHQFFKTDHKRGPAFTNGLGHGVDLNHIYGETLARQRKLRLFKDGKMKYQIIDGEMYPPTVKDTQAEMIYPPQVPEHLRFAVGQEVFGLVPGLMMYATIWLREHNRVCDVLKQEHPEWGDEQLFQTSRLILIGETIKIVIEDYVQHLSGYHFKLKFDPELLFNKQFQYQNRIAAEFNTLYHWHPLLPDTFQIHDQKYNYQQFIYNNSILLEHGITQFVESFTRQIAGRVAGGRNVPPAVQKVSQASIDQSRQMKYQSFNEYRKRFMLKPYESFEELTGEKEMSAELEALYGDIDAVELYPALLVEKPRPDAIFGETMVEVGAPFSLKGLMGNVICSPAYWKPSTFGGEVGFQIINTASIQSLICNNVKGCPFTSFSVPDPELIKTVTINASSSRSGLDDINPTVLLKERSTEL

[7] = target: T6, Polyunsaturated fatty acid lipoxygenase ALOX15 (Homo sapiens, UniProt P16050); assay: Inhibition of 15-LO in human polymorphonuclear leukocytes assessed as inhibition of 15-H(P)ETE production from arachidonic acid preincubated for 15 mins by HPLC analysis; type: cell-based
T6 sequence (P16050 whole entry): T3 sequence (whole entry)

| Structure (SMILES) | IC50 [1] | IC50 [2] | Activity [3] | Activity [4] | inhibition [5] | inhibition [6] | IC50 [7] |
| --- | --- | --- | --- | --- | --- | --- | --- |
| CCOC(=O)c1c(CSc2ccc(OC)cc2)n(C)c2ccc(O)cc12 | 3100 nM | 2300 nM | 92.1% | 128% | – | – | – |
| CCOC(=O)c1c(CSc2ccc(F)cc2F)n(C)c2ccc(O)cc12 | 6800 nM | 3200 nM | 91.4% | 102% | – | – | – |
| CCOC(=O)c1c(CSc2ccc(C(F)(F)F)cc2)n(C)c2ccc(O)cc12 | > 10000 nM | 4200 nM | 102% | 114% | – | – | – |
| CCOC(=O)c1c(CSc2ccccc2OC)n(C)c2ccc(O)cc12 | 5100 nM | 2900 nM | 108% | 136% | – | – | – |
| N#C/C(=C\c1ccc(O)c(O)c1)C(=O)OC/C=C/c1ccccc1 | – | – | 5.6% | 11.1% | – | – | – |
| CCOC(=O)c1c(CSc2c(Cl)cccc2Cl)n(C)c2ccc(O)cc12 | 900 nM | 800 nM | 103% | 136% | inactive | inactive | – |
| CCOC(=O)c1c(CSc2c(C)cccc2C)n(C)c2ccc(O)cc12 | 1200 nM | 800 nM | 94.1% | 125% | – | – | – |
| CCOC(=O)c1c(CSc2cc(C)cc(C)c2)n(C)c2ccc(O)cc12 | 2700 nM | 1800 nM | 107% | 150% | – | – | – |
| CCOC(=O)c1c(CSc2ccc(F)cc2)n(C)c2ccc(O)cc12 | 9100 nM | 5000 nM | 100% | 120% | – | – | – |
| CCOC(=O)c1c(CSc2cccc(Cl)c2)n(C)c2ccc(O)cc12 | > 10000 nM | 3800 nM | 92.9% | 114% | – | – | – |
| CCOC(=O)c1c(CSc2c(C)cc(C)cc2C)n(C)c2ccc(O)cc12 | 230 nM | 700 nM | 86.5% | 33% | inactive | inactive | 8200 nM |
| CCOC(=O)c1c(CSc2ccc(OC(F)(F)F)cc2)n(C)c2ccc(O)cc12 | 2100 nM | 900 nM | 94.1% | 107% | – | – | – |
| CCOC(=O)c1c(CSc2ccccc2C(F)(F)F)n(C)c2ccc(O)cc12 | 1200 nM | 800 nM | 104% | 126% | – | – | – |
| CCOC(=O)c1c(CSc2ccccc2)n(C)c2ccc(O)cc12 | 2400 nM | 5700 nM | 92.4% | 130% | – | – | – |
